Laboratory results reported in patent US12077503B2, “Substituted cyclic amides and their use as herbicides” (FMC CORPORATION, priority 2015, dated 2024).

Columns and labels:
Type in all cases: in vivo
[1] = system: ragweed (common ragweed, Ambrosia elatior); test: Test A postemergence; conditions: Ambrosia artemisiifolia, post-emergence, 240 h; for pest or weed control at 125 g/ha: 125 g ai/ha, postemergence, visual injury on 0 to 100 scale (0 no effect, 100 complete control), approx. 10 d, read-out: Ragweed plant response rating; for pest or weed control at 31 g/ha: Postemergence, 31 g ai/ha, visual injury after approx. 10 d, 0 to 100 scale, 0 no effect, 100 complete control, read-out: Plant response rating, Ragweed
Procedure, shortened: (§1)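 Compounds were formulated in a non-phytotoxic solvent mixture with surfactant and applied as a preemergence directed soil spray after seeding, or sprayed postemergence over plants 2 to 10 cm tall at the one- to two-leaf stage. Evaluation after about 10 d compared treated with untreated controls, using a scale from 0 (no effect) to 100 (complete control).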

[2] = system: barnyardgrass (Echinochloa crus-galli); test: Test A postemergence; conditions: Echinochloa crus-galli, post-emergence, 240 h; for pest or weed control at 125 g/ha: 125 g ai/ha, postemergence, visual injury on 0 to 100 scale (0 no effect, 100 complete control), approx. 10 d, read-out: Barnyardgrass plant response rating; for pest or weed control at 31 g/ha: Postemergence, 31 g ai/ha, visual injury after approx. 10 d, 0 to 100 scale, 0 no effect, 100 complete control, read-out: Plant response rating, Barnyardgrass
Procedure, shortened: as §1

[3] = system: blackgrass (Alopecurus myosuroides); test: Test A postemergence; conditions: Alopecurus myosuroides, post-emergence, 240 h; for pest or weed control at 125 g/ha: 125 g ai/ha, postemergence, visual injury on 0 to 100 scale (0 no effect, 100 complete control), approx. 10 d, read-out: Blackgrass plant response rating; for pest or weed control at 31 g/ha: Postemergence, 31 g ai/ha, visual injury after approx. 10 d, 0 to 100 scale, 0 no effect, 100 complete control, read-out: Plant response rating, Blackgrass
Procedure, shortened: as §1

corn (Zea mays) = test: Test A postemergence; conditions: Zea mays, post-emergence, 240 h; for plant injury at 125 g/ha: 125 g ai/ha, postemergence, visual injury on 0 to 100 scale (0 no effect, 100 complete control), approx. 10 d, read-out: Corn plant response rating; for Corn plant response rating (crop injury, 0 = no effect, 100 = complete kill) at 31 g/ha: Postemergence, 31 g ai/ha, visual injury after approx. 10 d, 0 to 100 scale, 100 complete control
Procedure, shortened: as §1

[4] = system: wheat (Triticum aestivum); test: Test A postemergence; conditions: Triticum aestivum, post-emergence, 240 h; for plant injury at 125 g/ha: 125 g ai/ha, postemergence, visual injury on 0 to 100 scale (0 no effect, 100 complete control), approx. 10 d, read-out: Wheat plant response rating; for plant injury at 31 g/ha: Postemergence, 31 g ai/ha, visual injury after approx. 10 d, 0 to 100 scale, 0 no effect, 100 complete control, read-out: Plant response rating, Wheat
Procedure, shortened: as §1

[5] = system: pigweed (Amaranthus retroflexus); test: Test A postemergence; conditions: Amaranthus retroflexus, post-emergence, 240 h; for pest or weed control at 125 g/ha: 125 g ai/ha, postemergence, visual injury on 0 to 100 scale (0 no effect, 100 complete control), approx. 10 d, read-out: Pigweed plant response rating; for pest or weed control at 31 g/ha: Postemergence, 31 g ai/ha, visual injury after approx. 10 d, 0 to 100 scale, 0 no effect, 100 complete control, read-out: Plant response rating, Pigweed
Procedure, shortened: as §1

[6] = system: giant foxtail (Setaria faberii); test: Test A postemergence; conditions: Setaria faberi, post-emergence, 240 h; for pest or weed control at 125 g/ha: 125 g ai/ha, postemergence, visual injury on 0 to 100 scale (0 no effect, 100 complete control), approx. 10 d, read-out: Foxtail, Giant plant response rating; for pest or weed control at 31 g/ha: Postemergence, 31 g ai/ha, visual injury after approx. 10 d, 0 to 100 scale, 0 no effect, 100 complete control, read-out: Plant response rating, Foxtail, Giant
Procedure, shortened: as §1

Kochia (Kochia scoparia) [7] = test: Test A postemergence; conditions: Bassia scoparia, post-emergence, 240 h; for pest or weed control at 125 g/ha: 125 g ai/ha, postemergence, visual injury on 0 to 100 scale (0 no effect, 100 complete control), approx. 10 d, read-out: Kochia plant response rating; for pest or weed control at 31 g/ha: Postemergence, 31 g ai/ha, visual injury after approx. 10 d, 0 to 100 scale, 0 no effect, 100 complete control, read-out: Plant response rating, Kochia
Procedure, shortened: as §1

[8] = system: ryegrass, Italian (Italian ryegrass, Lolium multiflorum); test: Test A postemergence; conditions: Lolium multiflorum, post-emergence, 240 h; for pest or weed control at 125 g/ha: 125 g ai/ha, postemergence, visual injury on 0 to 100 scale (0 no effect, 100 complete control), approx. 10 d, read-out: Ryegrass, Italian plant response rating; for pest or weed control at 31 g/ha: Postemergence, 31 g ai/ha, visual injury after approx. 10 d, 0 to 100 scale, 0 no effect, 100 complete control, read-out: Plant response rating, Ryegrass, Italian
Procedure, shortened: as §1

[9] = system: Galium (catchweed bedstraw, Galium aparine); test: Test A postemergence; conditions: Galium, post-emergence, 240 h; for pest or weed control at 125 g/ha: 125 g ai/ha, postemergence, visual injury on 0 to 100 scale (0 no effect, 100 complete control), approx. 10 d, read-out: Galium plant response rating; for pest or weed control at 31 g/ha: Postemergence, 31 g ai/ha, visual injury after approx. 10 d, 0 to 100 scale, 0 no effect, 100 complete control, read-out: Plant response rating, Galium
Procedure, shortened: as §1

[10] = system: barnyardgrass (Echinochloa crus-galli); test: Test B flooded paddy test; conditions: Echinochloa crus-galli, 250 g ai/ha, Flood; 0 to 100 scale where 0 is no effect and 100 is complete control; read-out: Barnyardgrass plant response rating
Procedure, shortened: (§2)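 Evaluation by eye, against controls, occurred 13–15 d post-treatment in a greenhouse, using a 0 (no effect) to 100 (complete control) scale. Application was into the paddy water, 3 cm deep over the soil, on 2-leaf plants.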

[11] = system: ducksalad (Heteranthera limosa); test: Test B flooded paddy test; conditions: Heteranthera limosa, 250 g ai/ha, Flood; 0 to 100 scale where 0 is no effect and 100 is complete control; read-out: Ducksalad plant response rating
Procedure, shortened: as §2

rice (Oryra sativa) = test: Test B flooded paddy test; conditions: Oryza sativa, 250 g ai/ha, Flood; 0 to 100 scale where 0 is no effect and 100 is complete control; read-out: Rice plant response rating
Procedure, shortened: as §2

[12] = system: sedge, umbrella (small-flower umbrella sedge, Cyperus difformis); test: Test B flooded paddy test; conditions: Cyperus difformis, 250 g ai/ha, Flood; 0 to 100 scale where 0 is no effect and 100 is complete control; read-out: Sedge, Umbrella plant response rating
Procedure, shortened: as §2

[13] = system: ragweed (common ragweed, Ambrosia elatior); test: Test A preemergence; conditions: Ambrosia artemisiifolia, pre-emergence, 240 h, 0 to 100 scale where 0 is no effect and 100 is complete control, read-out: Ragweed plant response rating; for pest or weed control at 31 g/ha: 31 g ai/ha, Preemergence; for pest or weed control at 125 g/ha: 125 g ai/ha, preemergence, approx. 10 d
Procedure, shortened: as §1

[14] = system: barnyardgrass (Echinochloa crus-galli); test: Test A preemergence; conditions: Echinochloa crus-galli, pre-emergence, 240 h, Preemergence; for pest or weed control at 31 g/ha: 31 g ai/ha, 0 to 100 scale where 0 is no effect and 100 is complete control, read-out: Barnyardgrass plant response rating; for pest or weed control at 125 g/ha: 125 g ai/ha, visual injury rating after approximately 10 d, read-out: Barnyardgrass plant response rating (0 to 100 scale, 0 is no effect, 100 is complete control)
Procedure, shortened: as §1

[15] = system: pigweed (Amaranthus retroflexus); test: Test A preemergence; conditions: Amaranthus retroflexus, pre-emergence, 240 h, 0 to 100 scale where 0 is no effect and 100 is complete control, read-out: Pigweed plant response rating; for pest or weed control at 31 g/ha: 31 g ai/ha, Preemergence; for pest or weed control at 125 g/ha: 125 g ai/ha, preemergence, approx. 10 d
[16] = system: giant foxtail (Setaria faberii); test: Test A preemergence; conditions: Setaria faberi, pre-emergence, 240 h, Preemergence; for pest or weed control at 31 g/ha: 31 g ai/ha, 0 to 100 scale where 0 is no effect and 100 is complete control, read-out: Foxtail, Giant plant response rating; for pest or weed control at 125 g/ha: 125 g ai/ha, visual injury rating after approximately 10 d, read-out: Foxtail, Giant plant response rating (0 to 100 scale, 0 is no effect, 100 is complete control)
Procedure, shortened: as §1

Kochia (Kochia scoparia) [17] = test: Test A preemergence; conditions: Bassia scoparia, pre-emergence, 240 h, 0 to 100 scale where 0 is no effect and 100 is complete control, read-out: Kochia plant response rating; for pest or weed control at 31 g/ha: 31 g ai/ha, Preemergence; for pest or weed control at 125 g/ha: 125 g ai/ha, preemergence, approx. 10 d
Procedure, shortened: as §1

[18] = system: ryegrass, Italian (Italian ryegrass, Lolium multiflorum); test: Test A preemergence; conditions: Lolium multiflorum, pre-emergence, 240 h, 0 to 100 scale where 0 is no effect and 100 is complete control, read-out: Ryegrass, Italian plant response rating; for pest or weed control at 31 g/ha: 31 g ai/ha, Preemergence; for pest or weed control at 125 g/ha: 125 g ai/ha, preemergence, approx. 10 d
Procedure, shortened: as §1

| Structure (SMILES) | pest or weed control at 125 g/ha [1] | pest or weed control at 31 g/ha [1] | pest or weed control at 125 g/ha [2] | pest or weed control at 31 g/ha [2] | pest or weed control at 125 g/ha [3] | pest or weed control at 31 g/ha [3] | plant injury at 125 g/ha (corn (Zea mays)) | Corn plant response rating (crop injury, 0 = no effect, 100 = complete kill) at 31 g/ha (corn (Zea mays)) | plant injury at 125 g/ha [4] | plant injury at 31 g/ha [4] | pest or weed control at 125 g/ha [5] | pest or weed control at 31 g/ha [5] | pest or weed control at 125 g/ha [6] | pest or weed control at 31 g/ha [6] | pest or weed control at 125 g/ha (Kochia (Kochia scoparia) [7]) | pest or weed control at 31 g/ha (Kochia (Kochia scoparia) [7]) | pest or weed control at 125 g/ha [8] | pest or weed control at 31 g/ha [8] | pest or weed control at 125 g/ha [9] | pest or weed control at 31 g/ha [9] | also measured |
| --- | --- | --- | --- | --- | --- | --- | --- | --- | --- | --- | --- | --- | --- | --- | --- | --- | --- | --- | --- | --- | --- |
| COc1cccc([C@H]2CNC(=O)[C@@H]2C(=O)Nc2cccc(F)c2F)c1F [Compound 1061] | 0% | 0% | 80% | 50% | 0% | 0% | 0% | 0% | 0% | 0% | 0% | 0% | 20% | 0% | 0% | 0% | 0% | 0% | 0% | 0% | pest or weed control at 250 g/ha [10]: 60%; pest or weed control at 250 g/ha [11]: 95%; pest or weed control at 250 g/ha (rice (Oryra sativa)): 15%; pest or weed control at 250 g/ha [12]: 0%; pest or weed control at 31 g/ha [13]: 0%; pest or weed control at 125 g/ha [13]: 0%; pest or weed control at 31 g/ha [14]: 40%; pest or weed control at 125 g/ha [14]: 80%; pest or weed control at 31 g/ha [15]: 0%; pest or weed control at 125 g/ha [15]: 0%; pest or weed control at 31 g/ha [16]: 20%; pest or weed control at 125 g/ha [16]: 70%; pest or weed control at 31 g/ha (Kochia (Kochia scoparia) [17]): 0%; pest or weed control at 125 g/ha (Kochia (Kochia scoparia) [17]): 0%; pest or weed control at 31 g/ha [18]: 0%; pest or weed control at 125 g/ha [18]: 0% |
| Cc1ccncc1NC(=O)[C@H]1C(=O)N(C)C[C@@H]1c1cccc(C(F)(F)F)c1 [Compound 1069] | 0% | 0% | 0% | 0% | 0% | 0% | 0% | 0% | 0% | 0% | 0% | 0% | 0% | 0% | 0% | 0% | 0% | 0% | 0% | 0% | pest or weed control at 250 g/ha [10]: 20%; pest or weed control at 250 g/ha [11]: 35%; pest or weed control at 250 g/ha (rice (Oryra sativa)): 0%; pest or weed control at 250 g/ha [12]: 0%; pest or weed control at 31 g/ha [13]: 0%; pest or weed control at 125 g/ha [13]: 0%; pest or weed control at 31 g/ha [14]: 0%; pest or weed control at 125 g/ha [14]: 0%; pest or weed control at 31 g/ha [15]: 0%; pest or weed control at 125 g/ha [15]: 0%; pest or weed control at 31 g/ha [16]: 0%; pest or weed control at 125 g/ha [16]: 50%; pest or weed control at 31 g/ha (Kochia (Kochia scoparia) [17]): 0%; pest or weed control at 125 g/ha (Kochia (Kochia scoparia) [17]): 0%; pest or weed control at 31 g/ha [18]: 0%; pest or weed control at 125 g/ha [18]: 0% |
